Results as given in patent US20100137449A1, “SUBSTITUTED 1,3-CYCLOPENTADIONE MULTI-TARGET PROTEIN KINASE MODULATORS OF CANCER, ANGIOGENESIS AND THE INFLAMMATORY PATHWAYS ASSOCIATED THEREWITH” (METAPROTEOMICS, LLC, priority 2007, published 2010).

How the values were obtained:
Test in all cases: KinaseProfiler Assay
[1] = target: T1, PrKX(h) (Homo sapiens, UniProt P51817)
T1 sequence (P51817 1-358): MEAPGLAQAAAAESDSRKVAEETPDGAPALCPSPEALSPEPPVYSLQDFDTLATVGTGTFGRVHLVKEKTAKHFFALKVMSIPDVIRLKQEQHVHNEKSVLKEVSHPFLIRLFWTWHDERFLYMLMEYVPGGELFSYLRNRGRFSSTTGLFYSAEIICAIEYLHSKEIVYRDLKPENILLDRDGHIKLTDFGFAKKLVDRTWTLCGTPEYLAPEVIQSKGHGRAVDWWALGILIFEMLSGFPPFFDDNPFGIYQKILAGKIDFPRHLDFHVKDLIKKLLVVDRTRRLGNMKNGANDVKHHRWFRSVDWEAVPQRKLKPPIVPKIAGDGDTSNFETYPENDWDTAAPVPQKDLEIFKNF

[2] = target: T2, ZAP-70(h) (Homo sapiens, UniProt P43403)
T2 sequence (P43403 1-619): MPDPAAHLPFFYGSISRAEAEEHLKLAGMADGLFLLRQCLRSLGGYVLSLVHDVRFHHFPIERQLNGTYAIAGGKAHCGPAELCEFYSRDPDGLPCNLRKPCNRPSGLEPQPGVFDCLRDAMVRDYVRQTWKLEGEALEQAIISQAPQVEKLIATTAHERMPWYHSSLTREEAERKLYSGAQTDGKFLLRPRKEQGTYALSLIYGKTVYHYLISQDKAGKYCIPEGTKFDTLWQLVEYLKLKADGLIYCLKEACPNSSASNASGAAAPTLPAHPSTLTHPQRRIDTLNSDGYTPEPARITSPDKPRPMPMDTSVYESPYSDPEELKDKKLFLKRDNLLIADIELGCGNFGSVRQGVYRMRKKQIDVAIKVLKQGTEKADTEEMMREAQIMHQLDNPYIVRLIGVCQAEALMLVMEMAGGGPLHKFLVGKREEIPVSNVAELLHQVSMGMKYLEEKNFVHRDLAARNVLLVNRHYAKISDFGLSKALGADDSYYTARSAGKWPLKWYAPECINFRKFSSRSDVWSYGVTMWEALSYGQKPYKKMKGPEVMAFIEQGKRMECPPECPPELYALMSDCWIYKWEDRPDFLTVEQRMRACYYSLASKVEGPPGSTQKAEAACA

[3] = target: MSSK1(h) (Homo sapiens, UniProt Q9UPE1)
[4] = target: Abl(m) (Mus musculus, UniProt P00520)
[5] = target: MRCKβ(h) (Homo sapiens, UniProt Q9Y5S2)
[6] = target: T3, BrSK1(h) (Homo sapiens, UniProt Q8TDC3)
T3 sequence (Q8TDC3 1-778): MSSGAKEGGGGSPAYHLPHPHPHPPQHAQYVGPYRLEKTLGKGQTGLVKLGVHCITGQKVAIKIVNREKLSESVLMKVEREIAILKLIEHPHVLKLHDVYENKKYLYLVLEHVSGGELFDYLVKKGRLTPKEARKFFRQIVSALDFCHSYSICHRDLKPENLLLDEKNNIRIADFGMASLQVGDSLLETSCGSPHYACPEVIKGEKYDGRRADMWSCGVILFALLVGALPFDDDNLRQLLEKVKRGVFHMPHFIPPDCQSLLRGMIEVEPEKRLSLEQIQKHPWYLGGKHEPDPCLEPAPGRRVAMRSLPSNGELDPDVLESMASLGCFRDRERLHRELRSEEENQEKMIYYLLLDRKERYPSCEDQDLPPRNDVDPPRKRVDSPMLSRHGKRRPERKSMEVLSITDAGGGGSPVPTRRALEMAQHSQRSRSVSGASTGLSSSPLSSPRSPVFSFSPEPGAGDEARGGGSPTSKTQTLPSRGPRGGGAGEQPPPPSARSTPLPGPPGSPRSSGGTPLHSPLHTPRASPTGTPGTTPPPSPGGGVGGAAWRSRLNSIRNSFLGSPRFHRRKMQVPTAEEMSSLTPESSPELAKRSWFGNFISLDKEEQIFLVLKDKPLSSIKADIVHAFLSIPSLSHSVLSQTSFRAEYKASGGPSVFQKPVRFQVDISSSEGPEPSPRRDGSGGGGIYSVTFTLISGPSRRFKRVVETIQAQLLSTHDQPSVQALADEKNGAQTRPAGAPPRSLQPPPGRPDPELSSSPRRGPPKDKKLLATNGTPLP

Sequence of MSSK1(h) (Q9UPE1 whole entry): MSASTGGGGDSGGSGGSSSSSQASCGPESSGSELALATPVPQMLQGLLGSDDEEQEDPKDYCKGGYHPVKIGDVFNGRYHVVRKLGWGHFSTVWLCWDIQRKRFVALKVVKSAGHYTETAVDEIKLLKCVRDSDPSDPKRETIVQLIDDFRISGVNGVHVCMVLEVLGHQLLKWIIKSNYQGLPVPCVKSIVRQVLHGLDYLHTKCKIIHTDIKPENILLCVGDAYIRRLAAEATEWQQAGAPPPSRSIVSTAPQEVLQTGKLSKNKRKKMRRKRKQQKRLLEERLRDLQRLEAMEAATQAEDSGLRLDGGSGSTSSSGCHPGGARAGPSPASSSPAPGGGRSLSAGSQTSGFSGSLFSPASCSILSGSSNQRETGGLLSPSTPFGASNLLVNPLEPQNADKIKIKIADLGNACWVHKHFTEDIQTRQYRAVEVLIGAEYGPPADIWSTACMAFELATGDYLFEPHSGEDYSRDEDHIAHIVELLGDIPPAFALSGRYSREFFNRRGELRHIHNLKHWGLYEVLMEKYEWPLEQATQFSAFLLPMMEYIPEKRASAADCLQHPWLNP
Sequence of Abl(m) (P00520 whole entry): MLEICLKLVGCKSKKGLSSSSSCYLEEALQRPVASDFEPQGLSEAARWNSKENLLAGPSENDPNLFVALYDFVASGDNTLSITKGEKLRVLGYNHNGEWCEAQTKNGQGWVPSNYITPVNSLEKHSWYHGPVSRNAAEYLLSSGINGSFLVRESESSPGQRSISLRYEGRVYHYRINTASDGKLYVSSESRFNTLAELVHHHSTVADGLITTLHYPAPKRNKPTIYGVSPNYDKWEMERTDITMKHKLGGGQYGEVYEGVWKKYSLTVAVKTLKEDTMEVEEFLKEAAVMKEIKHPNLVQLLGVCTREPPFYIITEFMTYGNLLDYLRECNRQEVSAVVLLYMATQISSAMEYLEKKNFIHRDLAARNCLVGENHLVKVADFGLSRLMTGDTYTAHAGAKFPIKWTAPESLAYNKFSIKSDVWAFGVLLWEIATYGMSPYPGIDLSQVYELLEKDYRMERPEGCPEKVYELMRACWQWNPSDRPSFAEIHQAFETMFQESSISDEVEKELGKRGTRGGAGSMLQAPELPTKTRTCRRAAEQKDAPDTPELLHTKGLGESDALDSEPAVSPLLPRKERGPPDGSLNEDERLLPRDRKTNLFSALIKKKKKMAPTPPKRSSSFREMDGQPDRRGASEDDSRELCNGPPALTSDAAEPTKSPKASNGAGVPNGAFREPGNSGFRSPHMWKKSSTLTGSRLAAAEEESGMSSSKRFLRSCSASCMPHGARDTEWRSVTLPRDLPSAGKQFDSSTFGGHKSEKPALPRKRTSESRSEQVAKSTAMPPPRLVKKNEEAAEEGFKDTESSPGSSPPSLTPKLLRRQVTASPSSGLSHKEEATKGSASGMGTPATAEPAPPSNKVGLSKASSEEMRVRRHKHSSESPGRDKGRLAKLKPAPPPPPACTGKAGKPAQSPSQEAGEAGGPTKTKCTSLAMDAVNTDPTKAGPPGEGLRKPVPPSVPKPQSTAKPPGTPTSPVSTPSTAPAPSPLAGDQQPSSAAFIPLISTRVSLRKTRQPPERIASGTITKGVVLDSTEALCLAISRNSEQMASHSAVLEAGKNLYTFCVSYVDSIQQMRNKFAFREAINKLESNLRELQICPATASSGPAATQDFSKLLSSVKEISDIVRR
Sequence of MRCKβ(h) (Q9Y5S2 whole entry): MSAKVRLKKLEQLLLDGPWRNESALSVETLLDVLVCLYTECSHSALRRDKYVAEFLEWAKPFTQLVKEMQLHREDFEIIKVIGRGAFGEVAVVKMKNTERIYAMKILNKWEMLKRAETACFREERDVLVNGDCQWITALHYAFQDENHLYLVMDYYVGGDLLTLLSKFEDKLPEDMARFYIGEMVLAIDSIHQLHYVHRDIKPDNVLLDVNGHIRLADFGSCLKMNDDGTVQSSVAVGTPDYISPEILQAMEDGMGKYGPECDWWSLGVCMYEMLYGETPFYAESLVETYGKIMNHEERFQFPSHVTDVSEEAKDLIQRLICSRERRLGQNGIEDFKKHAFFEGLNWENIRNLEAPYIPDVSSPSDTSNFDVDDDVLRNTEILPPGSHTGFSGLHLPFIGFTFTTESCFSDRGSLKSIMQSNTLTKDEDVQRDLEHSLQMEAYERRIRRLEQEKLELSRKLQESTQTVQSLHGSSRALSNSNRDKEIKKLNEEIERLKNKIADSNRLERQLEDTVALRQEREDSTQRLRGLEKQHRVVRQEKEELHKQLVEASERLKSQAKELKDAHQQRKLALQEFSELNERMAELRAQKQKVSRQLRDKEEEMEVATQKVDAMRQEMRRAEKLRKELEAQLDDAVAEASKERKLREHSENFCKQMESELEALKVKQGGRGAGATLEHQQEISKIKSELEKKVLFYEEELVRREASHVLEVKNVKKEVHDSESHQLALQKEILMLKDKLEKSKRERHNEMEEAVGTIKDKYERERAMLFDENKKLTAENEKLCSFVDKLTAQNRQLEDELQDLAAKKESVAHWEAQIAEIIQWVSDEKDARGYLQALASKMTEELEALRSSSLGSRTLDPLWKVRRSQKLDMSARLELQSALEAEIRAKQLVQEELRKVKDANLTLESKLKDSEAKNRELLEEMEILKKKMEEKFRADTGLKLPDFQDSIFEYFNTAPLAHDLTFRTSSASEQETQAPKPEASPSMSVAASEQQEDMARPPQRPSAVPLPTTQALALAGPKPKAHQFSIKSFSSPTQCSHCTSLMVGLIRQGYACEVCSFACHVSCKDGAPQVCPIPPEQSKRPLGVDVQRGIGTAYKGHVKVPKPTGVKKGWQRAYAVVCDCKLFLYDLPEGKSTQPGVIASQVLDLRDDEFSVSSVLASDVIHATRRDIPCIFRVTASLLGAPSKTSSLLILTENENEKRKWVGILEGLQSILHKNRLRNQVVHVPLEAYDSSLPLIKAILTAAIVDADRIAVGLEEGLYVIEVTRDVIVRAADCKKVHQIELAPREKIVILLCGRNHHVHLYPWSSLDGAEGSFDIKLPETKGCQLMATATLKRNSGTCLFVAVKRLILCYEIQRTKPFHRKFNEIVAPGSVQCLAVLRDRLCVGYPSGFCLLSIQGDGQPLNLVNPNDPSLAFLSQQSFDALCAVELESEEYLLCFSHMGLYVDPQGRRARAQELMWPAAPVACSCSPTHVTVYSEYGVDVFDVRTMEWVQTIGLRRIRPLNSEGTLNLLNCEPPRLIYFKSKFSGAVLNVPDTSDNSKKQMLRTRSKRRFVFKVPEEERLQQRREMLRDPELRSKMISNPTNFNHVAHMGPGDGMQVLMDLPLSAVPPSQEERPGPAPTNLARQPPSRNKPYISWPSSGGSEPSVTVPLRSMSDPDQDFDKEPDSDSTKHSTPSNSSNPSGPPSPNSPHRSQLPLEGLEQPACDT

CC(C)CCC(=O)[C@]1(O)C(O)=C(C(=O)C(C)C)C(=O)[C@H]1CCC(C)C [TH2, tetrahydroiso-cohumulone]
kinase inhibition ([1]; 1 μg/ml): 101% of control
kinase inhibition ([1]; 5 μg/ml): 103% of control
kinase inhibition ([1]; 25 μg/ml): 98% of control
kinase inhibition ([1]; 50 μg/ml): 88% of control
kinase inhibition ([1]; 100 μg/ml): 66% of control
kinase inhibition ([2]; 1 μg/ml): 125% of control
kinase inhibition ([2]; 5 μg/ml): 110% of control
kinase inhibition ([2]; 25 μg/ml): 124% of control
kinase inhibition ([2]; 50 μg/ml): 124% of control
kinase inhibition ([2]; 100 μg/ml): 107% of control
kinase inhibition ([3]; 1 μg/ml): 105% of control
kinase inhibition ([3]; 5 μg/ml): 84% of control
kinase inhibition ([3]; 25 μg/ml): 43% of control
kinase inhibition ([3]; 50 μg/ml): 50% of control
kinase inhibition ([3]; 100 μg/ml): 39% of control
kinase inhibition ([4]; 1 μg/ml): 98% of control
kinase inhibition ([4]; 5 μg/ml): 91% of control
kinase inhibition ([4]; 25 μg/ml): 69% of control
kinase inhibition ([4]; 50 μg/ml): 32% of control
kinase inhibition ([4]; 100 μg/ml): 48% of control
kinase inhibition ([5]; 1 μg/ml): 110% of control
kinase inhibition ([5]; 5 μg/ml): 114% of control
kinase inhibition ([5]; 25 μg/ml): 109% of control
kinase inhibition ([5]; 50 μg/ml): 104% of control
kinase inhibition ([5]; 100 μg/ml): 99% of control
kinase inhibition ([6]; 1 μg/ml): 104% of control
kinase inhibition ([6]; 5 μg/ml): 101% of control
kinase inhibition ([6]; 25 μg/ml): 82% of control
kinase inhibition ([6]; 50 μg/ml): 66% of control
kinase inhibition ([6]; 100 μg/ml): 50% of control
